Assay results taken from US11446287B2, “Compounds and methods for EP300 or CBP modulation and indications therefor” (Opna Immuno-Oncology SA, priority 2019, dated 2022).

Each molecule was assayed against T1, Recombinant human CBP containing the bromodomain (CBP-BD (1043-1159)) (Homo sapiens, UniProt Q92793) (assay: CBP Alphascreen binding assay). Details: read-out: CREBBP (CBP) IC50.
T1 construct: Recombinant human CBP bromodomain (CBP-BD (1043-1159)); made in house; host or cells: E. coli BL21-CodonPlus (DE3), modified pET vector
Outline: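 Buffer: 50 mM HEPES pH 7.5, 50 mM NaCl, 0.01% BSA, 0.01% Triton X-100, 2 mM DTT. The signal was normalised to plate controls and fitted with a four-parameter curve to give IC50.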

T1 sequence (Q92793 1081-1197): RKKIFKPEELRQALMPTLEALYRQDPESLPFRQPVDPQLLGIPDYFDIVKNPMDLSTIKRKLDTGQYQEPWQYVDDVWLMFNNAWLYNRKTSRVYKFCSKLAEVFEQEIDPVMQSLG

Row | Compound | IC50 [nM]
1 | Cc1noc(C)c1-c1cnc2c(-c3cc(C(=O)O)ccc3F)c(C(F)(F)F)n([C@@H](C)c3ccccn3)c2c1 [P-0238, (S)-3-(6-(3,5-dimethylisoxazol-4-yl)-1-(1-(pyridin-2-yl)ethyl)-2-(trifluoromethyl)-1H-pyrrolo[3,2-b]pyridin-3-yl)-4-fluorobenzoic acid] | 0.1 to 1000
2 | Cc1noc(C)c1-c1cnc2c(c1)c(-c1ccnc(C(=O)O)c1)cn2C(c1ccccn1)C1CCCC1 (stereo not drawn) [P-0017, 4-(1-(cyclopentyl(pyridin-2-yl)methyl)-5-(3,5-dimethylisoxazol-4-yl)-1H-pyrrolo[2,3-b]pyridin-3-yl)picolinic acid] | 0.1 to 1000
3 | CCOc1cc(C(=O)O)cc(F)c1-n1cc(-c2ccccc2)c2ncc(-c3c(C)noc3C)cc21 [P-0205, 4-(6-(3,5-dimethylisoxazol-4-yl)-3-phenyl-1H-pyrrolo[3,2-b]pyridin-1-yl)-3-ethoxy-5-fluorobenzoic acid] | 0.1 to 1000
4 | Cc1noc(C)c1-c1cnc2c(-c3ccc(C(=O)O)cc3C#CC3CC3)cn([C@@H](C)c3ccccn3)c2c1 [P-0171, (S)-3-(cyclopropylethynyl)-4-(6-(3,5-dimethylisoxazol-4-yl)-1-(1-(pyridin-2-yl)ethyl)-1H-pyrrolo[3,2-b]pyridin-3-yl)benzoic acid] | 0.1 to 1000
5 | Cc1noc(C)c1-c1cnc2c(c1)c(-c1ccc(C(=O)O)cc1C1CC1)cn2[C@@H](C)c1ccccn1 [P-0181, (S)-3-cyclopropyl-4-(5-(3,5-dimethylisoxazol-4-yl)-1-(1-(pyridin-2-yl)ethyl)-1H-pyrrolo[2,3-b]pyridin-3-yl)benzoic acid] | 0.1 to 1000
6 | CCOc1cc(C(=O)O)cc(OCC)c1-n1cc(-c2cccc(Cl)c2)c2ncc(-c3c(C)noc3C)cc21 [P-0185, 4-(3-(3-chlorophenyl)-6-(3,5-dimethylisoxazol-4-yl)-1H-pyrrolo[3,2-b]pyridin-1-yl)-3,5-diethoxybenzoic acid] | 0.1 to 1000
7 | Cc1cc(C(=O)O)ccc1-c1c(C(F)(F)F)n([C@@H](C)c2ccccn2)c2cc(-c3c(C)noc3C)cnc12 [P-0235, (S)-4-(6-(3,5-dimethylisoxazol-4-yl)-1-(1-(pyridin-2-yl)ethyl)-2-(trifluoromethyl)-1H-pyrrolo[3,2-b]pyridin-3-yl)-3-methylbenzoic acid] | 0.1 to 1000
8 | Cc1noc(C)c1-c1cnc2c(c1)c(-c1ccc(C(=O)O)cc1OC(C)C)cn2C(C1CC1)C1CC1 [P-0213, 4-(1-(dicyclopropylmethyl)-5-(3,5-dimethylisoxazol-4-yl)-1H-pyrrolo[2,3-b]pyridin-3-yl)-3-isopropoxybenzoic acid] | 0.1 to 1000
9 | CCOc1cc(C(=O)O)cc(OCC)c1-n1cc(-c2cnn(C)c2)c2ncc(-c3c(C)noc3C)cc21 [P-0195, 4-(6-(3,5-dimethylisoxazol-4-yl)-3-(1-methyl-1H-pyrazol-4-yl)-1H-pyrrolo[3,2-b]pyridin-1-yl)-3,5-diethoxybenzoic acid] | 0.1 to 1000
10 | CCOc1cc(C(=O)O)cc(OCC)c1-n1cc(-c2ccc(C#N)cc2F)c2ncc(-c3c(C)noc3C)cc21 [P-0217, 4-(3-(4-cyano-2-fluorophenyl)-6-(3,5-dimethylisoxazol-4-yl)-1H-pyrrolo[3,2-b]pyridin-1-yl)-3,5-diethoxybenzoic acid] | 0.1 to 1000
11 | Cc1noc(C)c1-c1cnc2c(c1)c(-c1ccc(C(=O)O)cc1OC(F)(F)F)cn2C1CCC(F)(F)CC1 [P-0227, 4-(1-(4,4-difluorocyclohexyl)-5-(3,5-dimethylisoxazol-4-yl)-1H-pyrrolo[2,3-b]pyridin-3-yl)-3-(trifluoromethoxy)benzoic acid] | 0.1 to 1000
12 | Cc1noc(C)c1-c1cnc2c(c1)c(-c1ccc(F)c(C(=O)O)c1)cn2C(c1ccccn1)C1CCCC1 (stereo not drawn) [P-0016, 5-(1-(cyclopentyl(pyridin-2-yl)methyl)-5-(3,5-dimethylisoxazol-4-yl)-1H-pyrrolo[2,3-b]pyridin-3-yl)-2-fluorobenzoic acid] | 0.1 to 1000
13 | Cc1noc(C)c1-c1cnc2c(c1)c(-c1ccc(C(=O)O)cc1OC(F)(F)F)cn2C(CC#N)C1CC1 (stereo not drawn) [P-0199, 4-(1-(2-cyano-1-cyclopropylethyl)-5-(3,5-dimethylisoxazol-4-yl)-1H-pyrrolo[2,3-b]pyridin-3-yl)-3-(trifluoromethoxy)benzoic acid] | 0.1 to 1000
14 | COc1cc(C(=O)O)ccc1-c1c(C(F)(F)F)n([C@@H](C)c2ccccn2)c2cc(-c3c(C)noc3C)cnc12 [P-0236, (S)-4-(6-(3,5-dimethylisoxazol-4-yl)-1-(1-(pyridin-2-yl)ethyl)-2-(trifluoromethyl)-1H-pyrrolo[3,2-b]pyridin-3-yl)-3-methoxybenzoic acid] | 0.1 to 1000
15 | Cc1noc(C)c1-c1cnc2c(-c3ccccc3)cn(-c3ccc(C(=O)O)cc3OC(F)(F)F)c2c1 [P-0196, 4-(6-(3,5-dimethylisoxazol-4-yl)-3-phenyl-1H-pyrrolo[3,2-b]pyridin-1-yl)-3-(trifluoromethoxy)benzoic acid] | 0.1 to 1000
16 | Cc1ccncc1-n1cc(-c2ccc(C(=O)O)cc2OC(F)(F)F)c2cc(-c3c(C)noc3C)cnc21 [P-0189, 4-(5-(3,5-dimethylisoxazol-4-yl)-1-(4-methylpyridin-3-yl)-1H-pyrrolo[2,3-b]pyridin-3-yl)-3-(trifluoromethoxy)benzoic acid] | 0.1 to 1000
17 | Cc1noc(C)c1-c1cnc2c(c1)c(-c1ccc(C(=O)O)cc1OC(F)(F)F)cn2-c1ncccc1C(F)(F)F [P-0180, 4-(5-(3,5-dimethylisoxazol-4-yl)-1-(3-(trifluoromethyl)pyridin-2-yl)-1H-pyrrolo[2,3-b]pyridin-3-yl)-3-(trifluoromethoxy)benzoic acid] | 0.1 to 1000
18 | Cc1noc(C)c1-c1cnc2c(c1)c(-c1ccc(C(=O)O)cc1OC(F)(F)F)cn2-c1cnccc1Cl [P-0177, 4-(1-(4-chloropyridin-3-yl)-5-(3,5-dimethylisoxazol-4-yl)-1H-pyrrolo[2,3-b]pyridin-3-yl)-3-(trifluoromethoxy)benzoic acid] | 0.1 to 1000
19 | Cc1cnccc1-n1cc(-c2ccc(C(=O)O)cc2OC(F)(F)F)c2cc(-c3c(C)noc3C)cnc21 [P-0211, 4-(5-(3,5-dimethylisoxazol-4-yl)-1-(3-methylpyridin-4-yl)-1H-pyrrolo[2,3-b]pyridin-3-yl)-3-(trifluoromethoxy)benzoic acid] | 0.1 to 1000
20 | Cc1noc(C)c1-c1cnc2c(c1)c(-c1c(Cl)cc(C(=O)O)cc1OC(F)(F)F)cn2C(C1CC1)C1CC1 [P-0198, 3-chloro-4-(1-(dicyclopropylmethyl)-5-(3,5-dimethylisoxazol-4-yl)-1H-pyrrolo[2,3-b]pyridin-3-yl)-5-(trifluoromethoxy)benzoic acid] | 0.1 to 1000
21 | CCOc1cc(C(=O)O)cc(OC(C)C)c1-c1cn([C@@H](C)c2ccccn2)c2ncc(-c3c(C)noc3C)cc12 [P-0174, (S)-4-(5-(3,5-dimethylisoxazol-4-yl)-1-(1-(pyridin-2-yl)ethyl)-1H-pyrrolo[2,3-b]pyridin-3-yl)-3-ethoxy-5-isopropoxybenzoic acid] | 0.1 to 1000
22 | Cc1noc(C)c1-c1cnc2c(c1)c(-c1ccc(C(=O)O)cc1OC(F)(F)F)cn2-c1ccc(F)cc1F [P-0232, 4-(1-(2,4-difluorophenyl)-5-(3,5-dimethylisoxazol-4-yl)-1H-pyrrolo[2,3-b]pyridin-3-yl)-3-(trifluoromethoxy)benzoic acid] | 0.1 to 1000
23 | Cc1noc(C)c1-c1cnc2c(c1)c(-c1ccc(C(=O)O)cc1OC(F)(F)F)cn2-c1ncccc1C#CC1CC1 [P-0216, 4-(1-(3-(cyclopropylethynyl)pyridin-2-yl)-5-(3,5-dimethylisoxazol-4-yl)-1H-pyrrolo[2,3-b]pyridin-3-yl)-3-(trifluoromethoxy)benzoic acid] | 0.1 to 1000
24 | Cc1noc(C)c1-c1cnc2c(c1)c(-c1ccc(C(=O)O)cc1OC(F)(F)F)c(C)n2-c1ccccn1 [P-0228, 4-(5-(3,5-dimethylisoxazol-4-yl)-2-methyl-1-(pyridin-2-yl)-1H-pyrrolo[2,3-b]pyridin-3-yl)-3-(trifluoromethoxy)benzoic acid] | 0.1 to 1000
25 | Cc1noc(C)c1-c1cnc2c(c1)c(-c1ccc(C(=O)O)cc1OC(F)(F)F)cn2-c1ncccc1F [P-0182, 4-(5-(3,5-dimethylisoxazol-4-yl)-1-(3-fluoropyridin-2-yl)-1H-pyrrolo[2,3-b]pyridin-3-yl)-3-(trifluoromethoxy)benzoic acid] | 0.1 to 1000
26 | Cc1noc(C)c1-c1cnc2c(-c3ccc(F)cc3F)cn(-c3ccc(C(=O)O)cc3OC(F)(F)F)c2c1 [P-0229, 4-(3-(2,4-difluorophenyl)-6-(3,5-dimethylisoxazol-4-yl)-1H-pyrrolo[3,2-b]pyridin-1-yl)-3-(trifluoromethoxy)benzoic acid] | 0.1 to 1000
27 | Cc1noc(C)c1-c1cnc2c(c1)c(-c1cccc(C(=O)O)c1)cn2C(c1ccccn1)C1CCCC1 (stereo not drawn) [P-0015, 3-(1-(cyclopentyl(pyridin-2-yl)methyl)-5-(3,5-dimethylisoxazol-4-yl)-1H-pyrrolo[2,3-b]pyridin-3-yl)benzoic acid] | 0.1 to 1000
28 | CCOc1cc(C(=O)O)cc(OCC)c1-n1cc(-c2ccc(C3CC3)nc2)c2ncc(-c3c(C)noc3C)cc21 [P-0192, 4-(3-(6-cyclopropylpyridin-3-yl)-6-(3,5-dimethylisoxazol-4-yl)-1H-pyrrolo[3,2-b]pyridin-1-yl)-3,5-diethoxybenzoic acid] | 0.1 to 1000
29 | Cc1noc(C)c1-c1cnc2c(c1)c(-c1ccc(C(=O)O)cc1OC(F)(F)F)cn2-c1cccnc1 [P-0175, 4-(5-(3,5-dimethylisoxazol-4-yl)-1-(pyridin-3-yl)-1H-pyrrolo[2,3-b]pyridin-3-yl)-3-(trifluoromethoxy)benzoic acid] | 0.1 to 1000
30 | Cc1noc(C)c1-c1cnc2c(c1)c(-c1ccc(C(=O)O)cc1OC(F)(F)F)cn2C1CCOCC1 [P-0226, 4-(5-(3,5-dimethylisoxazol-4-yl)-1-(tetrahydro-2H-pyran-4-yl)-1H-pyrrolo[2,3-b]pyridin-3-yl)-3-(trifluoromethoxy)benzoic acid] | 0.1 to 1000
